Measured values: ChEMBL document CHEMBL5244277, “A review upon medicinal perspective and designing rationale of DPP-4 inhibitors” (Bioorg Med Chem, 2021)

Legend:
Dipeptidyl peptidase 4 [1] = target: T1, Dipeptidyl peptidase 4 (Homo sapiens, UniProt P27487); test: Inhibition of DPP-4 (unknown origin) at 100 uM relative to control
Target sequence in this assay (P27487 whole entry, looked up): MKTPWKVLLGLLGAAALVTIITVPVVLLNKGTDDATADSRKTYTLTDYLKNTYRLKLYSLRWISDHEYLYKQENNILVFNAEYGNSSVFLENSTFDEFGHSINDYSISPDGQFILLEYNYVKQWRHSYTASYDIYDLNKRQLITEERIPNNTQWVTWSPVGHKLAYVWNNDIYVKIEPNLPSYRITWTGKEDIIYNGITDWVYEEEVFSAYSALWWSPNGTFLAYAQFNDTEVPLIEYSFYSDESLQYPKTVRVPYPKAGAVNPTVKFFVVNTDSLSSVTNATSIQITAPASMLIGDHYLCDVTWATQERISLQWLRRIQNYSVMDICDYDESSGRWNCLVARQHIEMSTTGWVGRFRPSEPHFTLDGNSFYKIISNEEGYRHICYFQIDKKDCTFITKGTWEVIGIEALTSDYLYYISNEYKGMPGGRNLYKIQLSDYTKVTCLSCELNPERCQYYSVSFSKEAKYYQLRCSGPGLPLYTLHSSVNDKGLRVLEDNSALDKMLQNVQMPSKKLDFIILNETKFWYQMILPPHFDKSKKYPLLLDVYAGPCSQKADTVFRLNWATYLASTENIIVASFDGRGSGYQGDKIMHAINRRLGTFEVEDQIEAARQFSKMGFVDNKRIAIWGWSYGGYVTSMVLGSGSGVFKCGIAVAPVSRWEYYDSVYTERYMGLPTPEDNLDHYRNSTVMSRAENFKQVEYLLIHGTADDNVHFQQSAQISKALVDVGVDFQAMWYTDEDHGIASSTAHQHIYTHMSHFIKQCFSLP

Dipeptidyl peptidase 4 [2] = target: T1, Dipeptidyl peptidase 4; test: Inhibition of human recombinant DPP-4 at 100 uM using Gly-Pro-Aminomethylcoumarin as substrate by Spectra max fluorometer analysis relative to control
Target sequence in this assay (P27487 whole entry, looked up): as above

Dipeptidyl peptidase 9 = Dipeptidyl peptidase 9 (Homo sapiens, UniProt Q86TI2); test: Inhibition of DPP-9 (unknown origin)
Chain of Dipeptidyl peptidase 9 (Q86TI2 whole entry): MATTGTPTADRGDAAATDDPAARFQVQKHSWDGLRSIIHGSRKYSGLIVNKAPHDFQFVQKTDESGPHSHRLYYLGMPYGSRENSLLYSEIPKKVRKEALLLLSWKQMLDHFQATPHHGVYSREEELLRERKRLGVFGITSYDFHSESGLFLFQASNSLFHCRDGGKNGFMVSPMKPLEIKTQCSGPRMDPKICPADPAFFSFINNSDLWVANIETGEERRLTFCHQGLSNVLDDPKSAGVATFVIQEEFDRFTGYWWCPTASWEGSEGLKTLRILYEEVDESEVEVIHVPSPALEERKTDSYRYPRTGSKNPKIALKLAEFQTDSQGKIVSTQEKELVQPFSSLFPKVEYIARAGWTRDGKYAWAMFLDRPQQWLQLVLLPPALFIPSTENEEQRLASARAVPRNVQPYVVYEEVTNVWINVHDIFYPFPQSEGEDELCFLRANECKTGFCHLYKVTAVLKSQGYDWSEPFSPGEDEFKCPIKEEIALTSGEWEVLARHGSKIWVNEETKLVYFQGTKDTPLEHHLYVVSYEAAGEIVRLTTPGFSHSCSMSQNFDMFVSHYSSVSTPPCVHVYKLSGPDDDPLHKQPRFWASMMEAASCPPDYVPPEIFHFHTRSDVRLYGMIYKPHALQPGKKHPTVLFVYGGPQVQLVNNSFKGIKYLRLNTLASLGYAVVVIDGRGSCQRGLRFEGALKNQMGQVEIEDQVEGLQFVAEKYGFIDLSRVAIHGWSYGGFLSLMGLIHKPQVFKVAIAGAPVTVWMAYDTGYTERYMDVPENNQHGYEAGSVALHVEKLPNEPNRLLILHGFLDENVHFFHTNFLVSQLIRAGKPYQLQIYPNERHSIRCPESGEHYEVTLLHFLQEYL

Dipeptidyl peptidase 8 = Dipeptidyl peptidase 8 (Homo sapiens, UniProt Q6V1X1); test: Inhibition of DPP-8 (unknown origin)
Chain of Dipeptidyl peptidase 8 (Q6V1X1 whole entry): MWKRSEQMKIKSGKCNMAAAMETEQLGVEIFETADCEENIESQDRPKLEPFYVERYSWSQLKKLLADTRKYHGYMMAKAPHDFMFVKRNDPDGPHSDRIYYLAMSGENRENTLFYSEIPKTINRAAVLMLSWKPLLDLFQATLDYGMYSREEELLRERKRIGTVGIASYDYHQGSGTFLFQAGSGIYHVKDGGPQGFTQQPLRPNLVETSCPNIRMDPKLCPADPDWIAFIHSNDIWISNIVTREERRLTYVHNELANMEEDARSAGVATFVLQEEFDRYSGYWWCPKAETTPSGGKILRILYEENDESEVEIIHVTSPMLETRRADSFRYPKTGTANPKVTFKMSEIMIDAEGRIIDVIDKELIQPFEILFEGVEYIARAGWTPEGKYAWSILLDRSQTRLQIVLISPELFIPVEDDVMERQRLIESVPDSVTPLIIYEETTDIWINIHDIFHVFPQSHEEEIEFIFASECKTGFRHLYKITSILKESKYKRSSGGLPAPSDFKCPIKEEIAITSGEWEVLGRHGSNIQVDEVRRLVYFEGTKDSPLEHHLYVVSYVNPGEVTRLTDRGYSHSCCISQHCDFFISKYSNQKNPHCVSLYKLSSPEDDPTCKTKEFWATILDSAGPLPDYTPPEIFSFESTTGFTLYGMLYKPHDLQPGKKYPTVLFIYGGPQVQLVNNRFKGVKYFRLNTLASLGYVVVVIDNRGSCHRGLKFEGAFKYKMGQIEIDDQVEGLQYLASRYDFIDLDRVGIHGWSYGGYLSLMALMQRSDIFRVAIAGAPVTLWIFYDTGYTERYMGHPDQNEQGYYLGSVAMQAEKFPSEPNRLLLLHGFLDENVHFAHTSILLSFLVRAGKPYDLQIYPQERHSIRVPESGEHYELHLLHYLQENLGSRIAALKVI

[3] = Half life in mouse; assay type: ADME, organism-based; details: in vivo
Homo sapiens [4] = species: Homo sapiens; test: Selectivity index, ratio of IC50 for DPP-4 (unknown origin) to IC50 for DPP-8 (unknown origin)
Dipeptidyl peptidase 4 [5] = target: T1, Dipeptidyl peptidase 4; assay type: cell-based, Caco-2
Target sequence in this assay (P27487 whole entry): as the sequence (P27487 whole entry, looked up) above

[6] = target: T2, Voltage-gated inwardly rectifying potassium channel KCNH2 (Homo sapiens, UniProt Q12809); test: Inhibition of hERG by thallium flux assay; assay type: toxicity
T2 sequence (Q12809 whole entry): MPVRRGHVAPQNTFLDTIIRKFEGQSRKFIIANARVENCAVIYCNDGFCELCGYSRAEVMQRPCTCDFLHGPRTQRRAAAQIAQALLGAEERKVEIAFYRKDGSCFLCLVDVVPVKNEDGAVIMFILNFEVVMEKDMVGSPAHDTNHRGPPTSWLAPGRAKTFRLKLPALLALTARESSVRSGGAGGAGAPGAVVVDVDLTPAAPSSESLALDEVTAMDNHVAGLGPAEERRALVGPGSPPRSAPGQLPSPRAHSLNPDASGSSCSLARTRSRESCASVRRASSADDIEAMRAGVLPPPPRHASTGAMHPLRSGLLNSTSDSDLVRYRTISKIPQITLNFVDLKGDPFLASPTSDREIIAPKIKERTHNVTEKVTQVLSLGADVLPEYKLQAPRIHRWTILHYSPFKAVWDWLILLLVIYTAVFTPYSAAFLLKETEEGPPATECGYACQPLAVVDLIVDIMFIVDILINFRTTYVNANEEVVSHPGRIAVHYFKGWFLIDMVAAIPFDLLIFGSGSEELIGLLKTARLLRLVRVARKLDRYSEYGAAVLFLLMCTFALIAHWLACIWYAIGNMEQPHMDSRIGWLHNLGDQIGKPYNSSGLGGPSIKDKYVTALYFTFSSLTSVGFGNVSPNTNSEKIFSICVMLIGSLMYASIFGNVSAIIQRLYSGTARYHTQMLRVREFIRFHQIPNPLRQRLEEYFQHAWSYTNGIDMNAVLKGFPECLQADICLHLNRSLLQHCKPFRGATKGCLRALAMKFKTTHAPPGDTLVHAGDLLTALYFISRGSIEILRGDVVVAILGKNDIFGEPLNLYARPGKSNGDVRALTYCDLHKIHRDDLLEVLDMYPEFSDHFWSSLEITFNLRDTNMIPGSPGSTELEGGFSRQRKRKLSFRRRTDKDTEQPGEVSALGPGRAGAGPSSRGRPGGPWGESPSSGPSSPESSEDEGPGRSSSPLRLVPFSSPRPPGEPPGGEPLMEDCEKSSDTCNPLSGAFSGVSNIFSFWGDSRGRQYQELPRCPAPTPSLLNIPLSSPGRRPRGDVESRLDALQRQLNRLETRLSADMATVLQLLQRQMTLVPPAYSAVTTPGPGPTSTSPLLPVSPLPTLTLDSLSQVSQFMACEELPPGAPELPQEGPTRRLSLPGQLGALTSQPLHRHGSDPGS

[7] = target: T2, Voltage-gated inwardly rectifying potassium channel KCNH2; test: Inhibition of hERG channel by patch clamp assay; assay type: toxicity
[8] = Blood glucose AUC in ICR mouse at 15 mg/kg; details: in vivo
[9] = Half life in ICR mouse at 15 mg/kg; assay type: ADME, organism-based; details: in vivo
[10] = Oral bioavailability in ICR mouse at 15 mg/kg; assay type: ADME, organism-based; details: in vivo
Mus musculus [11] = test: Hypoglycemic activity in C57BL/6J mouse assessed as reduction in blood glucose level at 10 mg/kg, po measured at 20 to 80 mins by OGTT analysis; assay type: functional; design: scale not given: the % may be the effect or the level left; details: time 20-80 min
[12] = AUC in C57BL/6J mouse at 20 mg/kg, po; assay type: ADME, organism-based; design: dose 20 mg/kg, route po; details: in vivo
Homo sapiens [13] = species: Homo sapiens; test: Selectivity index, ratio of IC50 for human recombinant DPP-4 to IC50 for human recombinant DPP-9
Homo sapiens [14] = species: Homo sapiens; test: Selectivity index, ratio of IC50 for human recombinant DPP-4 to IC50 for human recombinant DPP-8
Dipeptidyl peptidase 4 [15] = target: T1, Dipeptidyl peptidase 4; test: Inhibition of human recombinant DPP-4 using H-Gly-Pro-aminomethylcoumarin as substrate
Target sequence in this assay (P27487 whole entry): as the sequence (P27487 whole entry, looked up) above

Dipeptidyl peptidase 4 [16] = target: T1, Dipeptidyl peptidase 4; test: Inhibition of human recombinant DPP-4 using H-Gly-Pro-aminomethylcoumarin as substrate at 100 uM relative to control
Target sequence in this assay (P27487 whole entry, looked up): as above

Mus musculus [17] = test: Hypoglycemic activity in ICR mouse assessed as reduction in blood glucose level at 3 mg/kg; assay type: ADME, organism-based; design: scale not given: the % may be the effect or the level left; details: in vivo
Mus musculus [18] = test: Hypoglycemic activity in ICR mouse assessed as reduction in blood glucose level at 10 mg/kg; assay type: ADME, organism-based; design: scale not given: the % may be the effect or the level left; details: in vivo
Mus musculus [19] = test: Hypoglycemic activity in ICR mouse assessed as reduction in blood glucose level at 1 mg/kg; assay type: ADME, organism-based; design: scale not given: the % may be the effect or the level left; details: in vivo
Mus musculus [20] = test: Hypoglycemic activity in KKAy mouse assessed as reduction in blood glucose level at 10 mg/kg; assay type: ADME, organism-based; design: scale not given: the % may be the effect or the level left; details: in vivo
Dipeptidyl peptidase 4 [21] = target: T1, Dipeptidyl peptidase 4
Target sequence in this assay (P27487 whole entry): as the sequence (P27487 whole entry, looked up) above

Dipeptidyl peptidase 4 [22] = target: T1, Dipeptidyl peptidase 4; remark: listed apart in the source
Target sequence in this assay (P27487 whole entry): as the sequence (P27487 whole entry, looked up) above

Mus musculus [23] = test: Antidiabetic activity in ICR mouse assessed as decrease in AUC of glucose at 3 mg/kg, po; assay type: functional; design: scale not given: the % may be the effect or the level left
[24] = Bioavailability in rat; assay type: ADME, organism-based; details: in vivo
Dipeptidyl peptidase 4 [25] = target: T1, Dipeptidyl peptidase 4; remark: listed apart in the source
Target sequence in this assay (P27487 whole entry, looked up): as above

Rattus norvegicus [26] = test: Antihyperglycemic activity in STZ-induced diabetic rat model assessed as reduction in blood glucose level at 100 mg/kg, po measured upto 24 hrs; assay type: functional; design: scale not given: the % may be the effect or the level left
Rattus norvegicus [27] = test: Anti-hyperglycemic activity in STZ-induced diabetic rat model assessed as improvement in glucose tolerance level at 30 mg/kg, po measured on day 10; assay type: functional; details: time 10 day
Rattus norvegicus [28] = test: Anti-hyperglycemic activity in STZ-induced diabetic rat model assessed as improvement in glucose tolerance level at 30 mg/kg, po measured on day 15; assay type: functional

**Q.** Which inhibition (Dipeptidyl peptidase 4 [1]) does the source give for `COC(=O)C1=C(C)N=C2CC(C)C3(Oc4c(Cl)c(OC)cc(OC)c4C3=O)C(O)=C2C1c1cc2cccc3c2n(c1=O)CCC3` (stereo not drawn) here?
**A.** The inhibition was over 50%.

**Q.** With `O=C(CNc1cc2ccc3ccccc3c2oc1=O)Nc1ccc(Cl)cc1` as the compound, how does the inhibition (Dipeptidyl peptidase 4 [2]) read?
**A.** The inhibition was 26.7%.

**Q.** Which results are given for `Cc1nc2cc(-c3ccccc3Cl)nn2c(-c2ccc(Cl)cc2Cl)c1CO`?
**A.** Ki (Dipeptidyl peptidase 9): > 30 µM; Ki (Dipeptidyl peptidase 8): > 30 µM

**Q.** Which half-life [3] does the source give for `N#C[C@@H]1CCCN1C(=O)[C@@H](N)CCC(=O)N1CCn2c(nnc2C(F)(F)F)C1.O=C(O)C(F)(F)F` here?
**A.** The half-life was under 1440 min.

**Q.** What about the Ratio IC50 (Homo sapiens [4]) of the same compound?
**A.** The Ratio IC50 was over 1000.

**Q.** For `N#C[C@@H]1CCCN1C(=O)[C@@H](N)CCC(=O)N1CCn2cnnc2C1`, which half-life [3] is on record?
**A.** The half-life was under 1440 min.

**Q.** And the Ratio IC50 (Homo sapiens [4])?
**A.** The Ratio IC50 was over 1000.

**Q.** For `N[C@@H](CC(=O)N1CCC[C@H]1CNC(=O)c1cc(S(=O)(=O)N2CCCCC2)c(F)cc1F)[C@H]1CCc2cc(F)c(F)cc21`, which IC50 (Dipeptidyl peptidase 4 [5]) is on record?
**A.** Its IC50 is 0.87 nM.

**Q.** Which results are given for `N#C[C@@H]1[C@@H]2CCC[C@@H]2CN1C(=O)[C@@H](N)Cc1cc(F)c(F)cc1F`?
**A.** IC5 ([6]; human): 55.3 µM; IC50 [7]: > 40 µM; glucose AUC [8]: 847 mmol/L/min; half-life [9]: 164 min; bioavailability [10]: 22.8%

**Q.** Which Activity (Mus musculus [11]) does the source give for `CS(=O)(=O)c1cccc(C(=O)NC[C@@H]2CCCN2C(=O)C[C@H](N)[C@H]2CCc3cc(F)c(F)cc32)c1` here?
**A.** The Activity was 40%.

**Q.** And the IC50 (Dipeptidyl peptidase 4 [5])?
**A.** Its IC50 is 1.06 nM.

**Q.** For `N#C[C@@H]1CCCN1C(=O)CCCNC(=O)c1ccc(C(F)(F)F)cc1`, which AUC [12] is on record?
**A.** Its AUC is 17400 ng·h/mL.

**Q.** With `Cc1ccccc1-c1nc2ccccn2c1CN` as the compound, how does the Ratio IC50 (Homo sapiens [13]) read?
**A.** The Ratio IC50 was over 340.

**Q.** And the Ratio IC50 (Homo sapiens [14])?
**A.** The Ratio IC50 was over 340.

**Q.** What about the IC50 (Dipeptidyl peptidase 4 [15]) of the same compound?
**A.** Its IC50 is 290 nM.

**Q.** What about the inhibition (Dipeptidyl peptidase 4 [16]) of the same compound?
**A.** The inhibition was 59%.

**Q.** Which results are given for `N#Cc1ccc(NCCNCC(=O)N2CCC[C@H]2C#N)nc1`?
**A.** Activity (Mus musculus [17]): 33.48%; Activity (Mus musculus [18]): 33.51%; AUC [12]: 21500 ng·h/mL

**Q.** With `N[C@@H](CC(=O)N1CCC[C@H]1CNC(=O)c1cccc(S(N)(=O)=O)c1)[C@H]1CCc2cc(F)c(F)cc21` as the compound, how does the IC50 (Dipeptidyl peptidase 4 [5]) read?
**A.** Its IC50 is 0.87 nM.

**Q.** With `N[C@@H](CC(=O)N1CCC[C@H]1CNC(=O)c1ccc(F)c(S(N)(=O)=O)c1)[C@H]1CCc2cc(F)c(F)cc21` as the compound, how does the IC50 (Dipeptidyl peptidase 4 [5]) read?
**A.** The IC50 was 0.87 nM.

**Q.** What does the source list for `N#C[C@@H]1CCCN1C(=O)CNC12CC3CC(CC(O)(C3)C1)C2` [VILDAGLIPTIN]?
**A.** glucose AUC [8]: 904 mmol/L/min; Activity (Mus musculus [19]): 24.1%; Activity (Mus musculus [20]): 30%

**Q.** For `N#C[C@@H]1C[C@H](F)CN1C(=O)[C@@H](N)Cc1cc(Cl)c(Cl)cc1Cl`, which IC50 [6] is on record?
**A.** Its IC50 is 97.7 µM.

**Q.** What about the IC50 [7] of the same compound?
**A.** The IC50 was over 40 µM.

**Q.** And the glucose AUC [8]?
**A.** Its glucose AUC is 795 mmol/L/min.

**Q.** What about the half-life [9] of the same compound?
**A.** The half-life was 122 min.

**Q.** And the bioavailability [10]?
**A.** The bioavailability was 53.2%.

**Q.** For `CO/N=C1\CN(c2nc3c(cc2F)c(=O)c(C(=O)O)cn3C2CC2)CC1CN` (stereo not drawn) [GEMIFLOXACIN], which IC50 (Dipeptidyl peptidase 4 [21]) is on record?
**A.** The IC50 was 2700 nM.

**Q.** For `CC#CCn1c(N2CCC[C@@H](N)C2)cc(=O)n(Cc2cn(CCC(=O)O)nn2)c1=O`, which IC50 (Dipeptidyl peptidase 4 [22]) is on record?
**A.** The IC50 was 12.4 nM.

**Q.** And the Activity (Mus musculus [23])?
**A.** The Activity was 21.2%.

**Q.** For `O=C(CNc1cc2ccc3ccccc3c2oc1=O)Nc1ccc(F)cc1`, which inhibition (Dipeptidyl peptidase 4 [2]) is on record?
**A.** The inhibition was 26.7%.

**Q.** For `Cc1c(-c2cc(S(=O)(=O)c3ccccc3)n[nH]2)c(=O)n(C)n1C`, which IC50 (Dipeptidyl peptidase 4 [21]) is on record?
**A.** The IC50 was under 15 nM.

**Q.** For `Cl.N[C@@H](CC(=O)N1CCn2c(nnc2C(F)(F)F)[C@H]1c1ccc(F)cc1)Cc1cc(F)c(F)cc1F`, which bioavailability [24] is on record?
**A.** Its bioavailability is 76%.

**Q.** What about the IC5 (Dipeptidyl peptidase 4 [25]) of the same compound?
**A.** Its IC5 is 0.00018 µM.

**Q.** Which results are given for `CN1CCN(S(=O)(=O)c2cccc(C(=O)NC[C@@H]3CCCN3C(=O)C[C@H](N)[C@H]3CCc4cc(F)c(F)cc43)c2)CC1`?
**A.** Activity (Mus musculus [11]): 34%; IC50 (Dipeptidyl peptidase 4 [5]): 1.1 nM

**Q.** With `N[C@@H](CC(=O)N1CCC[C@H]1CNC(=O)c1cc(S(N)(=O)=O)c(F)cc1F)[C@H]1CCc2cc(F)c(F)cc21` as the compound, how does the Activity (Mus musculus [11]) read?
**A.** Its Activity is 12%.

**Q.** What about the IC50 (Dipeptidyl peptidase 4 [5]) of the same compound?
**A.** Its IC50 is 0.87 nM.

**Q.** With `NNC1=NC(N2C(=O)CSC2=O)=NC(NN)N1` (stereo not drawn) as the compound, how does the IC5 (Dipeptidyl peptidase 4 [25]) read?
**A.** Its IC5 is 6.25 µM.

**Q.** With `O=C(CN1CCN(c2ccccn2)CC1)N1CCSC1` as the compound, how does the Activity (Rattus norvegicus [26]) read?
**A.** Its Activity is 18.4%.

**Q.** Which inhibition (Dipeptidyl peptidase 4 [2]) does the source give for `COC(=O)c1ccc2cc(OCC(=O)Nc3ccc(C)cc3)c(=O)oc2c1` here?
**A.** Its inhibition is 1.3%.

**Q.** Which Activity (Rattus norvegicus [26]) does the source give for `O=C(CN1CCN(c2cccc(Cl)c2)CC1)N1CCCCC1` here?
**A.** The Activity was 24.6%.

**Q.** What about the Activity (Rattus norvegicus [27]) of the same compound?
**A.** Its Activity is 11.8%.

**Q.** And the Activity (Rattus norvegicus [28])?
**A.** Its Activity is 19.4%.

**Q.** With `O=C(CN1CCN(c2ccnc3cc(Cl)ccc23)CC1)N1CCOCC1` as the compound, how does the Activity (Rattus norvegicus [26]) read?
**A.** Its Activity is 17.4%.

**Q.** For `N[C@@H](CC(=O)N1CCC[C@H]1CNC(=O)c1cc(S(=O)(=O)N2CCOCC2)c(F)cc1F)[C@H]1CCc2cc(F)c(F)cc21`, which IC50 (Dipeptidyl peptidase 4 [5]) is on record?
**A.** The IC50 was 0.87 nM.
